Measured values: patent US20250049948A1, “NOVEL IONIZABLE LIPIDS AND LIPID NANOPARTICLES AND METHODS OF USING THE SAME” (Sail Biomedicines, Inc., priority 2021, published 2025)
Values joined by “and” are separate entries in the source; they are usually repeats but may differ in a detail not shown here. Equal entries are not always repeated.

What was measured:
Balb/c mice [1] = test: In-vivo bioluminescent imaging of LNP compositions (Example 3); settings: for Bioluminescence, Spleen / Bioluminescence, Whole body / Bioluminescence, Liver / Bioluminescence, Pancreas / Bioluminescence, Lung: LNP with 5 μg Fluc+5 μg EPO mRNA intravenously, 4-6 hours post-dose, two values per compound; for Bioluminescence, Whole body: FIG. 1: average radiance (p/s/cm2/sr); for Organ selectivity of delivery: bioluminescent imaging in mice, Example 3
From the text: C12-200 is commercially available ionizable lipid and has a chemical name of 1,1′-((2-(4-(2-((2-(bis(2-hydroxydodecyl)amino)ethyl)(2-hydroxydodecyl) amino)ethyl)piperazin-1-yl)ethyl)azanediyl)bis(dodecan-2-ol). A composition composed of ionizable lipid:structural lipid:sterol:EG-lipid (C12-200:DOPE:cholesterol:14:0 PEG2000 PE) at a molar ratio of 35:16:46.5:2.5, respectively. Lipids were solubilized in ethanol. These lipids were mixed at the above-indicated molar ratios and diluted in ethanol (organic phase) to 5.5 mM total lipid concentration. The mRNA solution (aqueous phase) was prepared with RNAse-free water and 100 mM citrate buffer pH 3 for a final concentration of 50 mM citrate buffer. The ionizable lipid to mRNA N:P ratio maintained at 15:1.
All other compositions (i.e., compositions of MC3 (a commercially available ionizable lipid having a chemical name of (6Z,9Z,28Z,31Z)-heptatriacont-6,9,28,31-tetraene-19-yl 4-(dimethylamino)butanoate, and compositions of novel ionizable lipids 7669, 7671, 7668, […], 7650) were composed of ionizable lipid:structural lipid:sterol:PEG-lipid (SDA lipid #:DSPC:cholesterol:14:0 PEG2000 PE) at a molar ratio of 50:38.5:10:1.5, respectively. Lipids were solubilized in ethanol. Compositions were then handled as above, except the formulations were maintained at ionizable lipid to mRNA N:P ratio of 6:1. The lipid mix and mRNA solution were mixed at a 1:3 ratio by volume, respectively, on a NanoAssemblr Ignite (Precision Nanosystems) at a total flow rate of 9 mL/min. Resulting compositions were then loaded into Slide-A-Lyzer G2 dialysis cassettes (10 k MWCO) and dialyzed in 200 times sample volume of 1×PBS for 4 hrs at room temp with gentle stirring. The PBS was refreshed, and the compositions were further dialyzed for at least 14 hrs at 4° C. with gentle stirring. The dialyzed compositions were then collected and concentrated by centrifugation at 2000×g using Amicon Ultra centrifugation filters (100 k MWCO). Concentrated particles were characterized for size, polydispersity, and particle concentration using Zetasizer Ultra (Malvern Panalytical) and for mRNA encapsulation efficiency using Quant-iT RiboGreen RNA Assay Kit (ThermoFisher Scientific).
8-9 week old female Balb/c mice were utilized for bioluminescence-based ionizable lipid screening efforts. Mice were obtained from Jackson Laboratories (JAX Stock: 000651) and allowed to acclimate for one week prior to manipulations. Animals were placed under a heat lamp for a few minutes before introducing them to a restraining chamber. The tail was wiped with alcohol pads (Fisher Scientific) and 100 μL of a lipid nanoparticle composition described above containing 10 μg total mRNA (5 μg Fluc+5 μg EPO) was injected intravenously using a 29G insulin syringe (Covidien). Any resulting bleeding was stemmed using a sterile gauze pad (Fisher Scientific) and animals were placed back into their home cage. 4-6 hours post-dose, animals were injected with 200 μL of 15 mg/mL D-Luciferin (GoldBio) and placed in an isoflurane induction chamber set to deliver 2.5% isoflurane delivered at an oxygen flow rate of 1-2 liters per min. After 5 minutes of isoflurane exposure, mice were placed in set nose cones inside the IVIS Lumina LT imager (PerkinElmer). LivingImage software was utilized for imaging. Whole body bio-luminescence was captured at auto-exposure after which animals were removed from the IVIS and placed into a CO2 chamber for euthanasia. Cardiac puncture was performed on each animal after placing it in dorsal recumbency, and blood collection was performed using a 25G insulin syringe (BD). Blood was collected in Lithium-Heparin coated tubes (Fisher Scientific) and immediately placed on ice. Once all blood samples were collected, tubes were spun at 2000G for 10 minutes using a tabletop centrifuge and plasma was aliquoted into individual Eppendorf tubes (Fisher Scientific) and stored at −80 C for subsequent EPO quantification. […]

Balb/c mice [2] = test: In-vivo bioluminescent imaging of LNP compositions (Example 6); settings: mRNA dose 5 μg FLUC (CRE/FLUC 1:1 LNP); for Bioluminescence (IV) Liver / Bioluminescence (IV) Lung / Bioluminescence (IV) Spleen / Bioluminescence (IV) Whole Body: 4-6 hours post-dose; for Spleen: Liver Ratio: intravenous
[3] = LNP size and polydispersity, Zetasizer Ultra; type: physicochemical
Protocol: (§1) For each LNP composition, the lipid mix and mRNA solution were mixed at a 1:3 ratio by volume, respectively, on a NanoAssemblr Ignite (Precision Nanosystems) at a total flow rate of 9 mL/min. The resulting compositions were then loaded into Slide-A-Lyzer G2 dialysis cassettes (10 k MWCO) and dialyzed in 200 times sample volume of 1×PBS for 2 hours at room temperature with gentle stirring. The PBS was refreshed, and the compositions were further dialyzed for at least 14 hours at 4° C. with gentle stirring. The dialyzed compositions were then collected and concentrated by centrifugation at 3000×g using Amicon Ultra centrifugation filters (100 k MWCO). The concentrated particles were characterized for size, polydispersity, and particle concentration using Zetasizer Ultra (Malvern Panalytical) and for mRNA encapsulation efficiency using Quant-iT RiboGreen RNA Assay Kit (ThermoFisher Scientific).

[4] = mRNA encapsulation efficiency, Quant-iT RiboGreen RNA Assay; type: physicochemical
Protocol: as §1

| SMILES | Bioluminescence, Spleen (Balb/c mice [1]) | Bioluminescence, Whole body (Balb/c mice [1]) | Organ selectivity of delivery (Balb/c mice [1]) | Bioluminescence, Liver (Balb/c mice [1]) | Bioluminescence, Pancreas (Balb/c mice [1]) | Bioluminescence, Lung (Balb/c mice [1]) | also measured |
| --- | --- | --- | --- | --- | --- | --- | --- |
| CCCCCCC(CCCCCC)CCCOC(=O)CCCCCCCN(CCCCCCCC(=O)OCCCC(CCCCCC)CCCCCC)C(=O)CCCN(C)C [Compound 7668, 4-hexyldecyl 8-[4-(dimethylamino)butanoyl-[8-(4-hexyldecoxy)-8-oxo-octyl]amino]octanoate] | 56400 and 60500 | 48500 and 26900 | selectively targeted the pancreas and lung over the whole body, liver, or spleen |  |  |  |  |
| CCCCCCC(CCCCCC)CCCOC(=O)CCCCCN(CCCCCC(=O)OCCCC(CCCCCC)CCCCCC)C(=O)CCN1CCCC1 [Compound 2143, bis(4-hexyldecyl) 6,6′-((3-(pyrrolidin-1-yl)propanoyl)azanediyl)dihexanoate] |  |  |  |  |  |  | Bioluminescence (IV) Liver (Balb/c mice [2]): 1.3E + 05; Bioluminescence (IV) Lung (Balb/c mice [2]): 6.3E + 03; Bioluminescence (IV) Spleen (Balb/c mice [2]): 6.5E + 05; Bioluminescence (IV) Whole Body (Balb/c mice [2]): 1.7E + 05; Spleen: Liver Ratio (Balb/c mice [2]): 5.050; PDI ([3]; LNP with CRE/FLUC 1:1 mRNA): 0.11; Size (nm) ([3]; LNP with CRE/FLUC 1:1 mRNA): 78.6 nm; PDI ([3]; LNP with EGFP mRNA): 0.08; Size (nm) ([3]; LNP with EGFP mRNA): 83.4 nm; % EE ([4]; LNP with CRE/FLUC 1:1 mRNA): 97.1%; % EE ([4]; LNP with EGFP mRNA): 97.3% |
| CCCCCCC(CCCCCC)CCCOC(=O)CCCCCCCN(CCO)CCCCCCCC(=O)OCCCC(CCCCCC)CCCCCC [Compound 2136, bis(4-hexyldecyl) 8,8′-((2-hydroxyethyl)azanediyl)dioctanoate] |  |  |  |  |  |  | PDI ([3]; LNP with EGFP mRNA): 0.04; Size (nm) ([3]; LNP with EGFP mRNA): 77.5 nm; % EE ([4]; LNP with EGFP mRNA): 95.5% |
| CCCCCCCCCCC(O)CN(CCN1CCN(CCN(CC(O)CCCCCCCCCC)CC(O)CCCCCCCCCC)CC1)CCN(CC(O)CCCCCCCCCC)CC(O)CCCCCCCCCC (centres unmarked) [Compound C12-200, 1,1′-((2-(4-(2-((2-(bis(2-hydroxydodecyl)amino)ethyl)(2-hydroxydodecyl)amino)ethyl)piperazin-1-yl)ethyl)azanediyl)bis(dodecan-2-ol), reference compound] | 1280000 and 1390000 |  |  | 92300000 and 69700000 | 236000 and 216000 |  |  |
| CCCCCCC(CCCCCC)CCCOC(=O)CCCCCCCN(CCCCCCCC(=O)OCCCC(CCCCCC)CCCCCC)CCC(O)CN(C)C (centres unmarked) [Compound 7676, 4-hexyldecyl 8-[[4-(dimethylamino)-3-hydroxy-butyl]-[8-(4-hexyldecoxy)-8-oxo-octyl]amino]octanoate] | 255000 and 259000 | 50900 and 30400 | selectively targeted the pancreas and lung over the whole body, liver, or spleen | 183000 and 161000 | 177000 and 220000 | 262000 and 170000 |  |
| CCCCCC(CCCCC)CCCOC(=O)CCCCCCCN(CCO)CCCCCCCC(=O)OCCCC(CCCCC)CCCCC [Compound 2135, bis(4-pentylnonyl) 8,8′-((2-hydroxyethyl)azanediyl)dioctanoate] |  |  |  |  |  |  | PDI ([3]; LNP with EGFP mRNA): 0.04; Size (nm) ([3]; LNP with EGFP mRNA): 81.8 nm; % EE ([4]; LNP with EGFP mRNA): 96.2% |
| CCCCCCC(CCCCCC)CCCOC(=O)CCCCCCCN(CCCCCCCC(=O)OCCCC(CCCCCC)CCCCCC)CCOCCOCCN(C)C [Compound 7669, 4-hexyldecyl 8-[2-[2-[2-(dimethylamino)ethoxy]ethoxy]ethyl-[8-(4-hexyldecoxy)-8-oxo-octyl]amino]octanoate] | 112000 and 91700 | 5120 and 2920 | selectively targeted the pancreas and lung over the whole body, liver, or spleen | 92400 and 129000 | 106000 and 87800 | 73000 and 70100 |  |
| CCCCCCC(CCCCCC)CCCOC(=O)CCCCCN(CCCCCC(=O)OCCCC(CCCCCC)CCCCCC)CCOCCOCCN(C)C [Compound 2146, 4-hexyldecyl 11-(6-((4-hexyldecyl)oxy)-6-oxohexyl)-2-methyl-5,8-dioxa-2,11-diazaheptadecan-17-oate] |  |  |  |  |  |  | Bioluminescence (IV) Liver (Balb/c mice [2]): 9.7E + 04; Bioluminescence (IV) Lung (Balb/c mice [2]): 1.2E + 03; Bioluminescence (IV) Spleen (Balb/c mice [2]): 4.7E + 04; Bioluminescence (IV) Whole Body (Balb/c mice [2]): 7.4E + 03; Spleen: Liver Ratio (Balb/c mice [2]): 0.505; PDI ([3]; LNP with CRE/FLUC 1:1 mRNA): 0.26; Size (nm) ([3]; LNP with CRE/FLUC 1:1 mRNA): 81.0 nm; % EE ([4]; LNP with CRE/FLUC 1:1 mRNA): 96.5% |
| CCCCCC(CCCCC)CCCN(C)C(=O)CCCCCCCN(CCCCCCCC(=O)N(C)CCCC(CCCCC)CCCCC)C(=O)CCN1CCCC1 [Compound 2242, N-methyl-8-(N-(8-(methyl(4-pentylnonyl)amino)-8-oxooctyl)-3-(pyrrolidin-1-yl)propanamido)-N-(4-pentylnonyl)octanamide] |  |  |  |  |  |  | PDI ([3]; LNP with FLUC/EPO 1:1 mRNA): 0.079; Size (nm) ([3]; LNP with FLUC/EPO 1:1 mRNA): 154.2 nm; % EE ([4]; LNP with FLUC/EPO 1:1 mRNA): 89.5% |
| CCCCCCC(CCCCCC)CCCOC(=O)CCCCCCCN(CCCCCCCC(=O)OCCCC(CCCCCC)CCCCCC)CCCCN(C)C [Compound 7650, 4-hexyldecyl 8-[4-(dimethylamino)butyl-[8-(4-hexyldecoxy)-8-oxo-octyl]amino]octanoate] | 82400 and 108000 | 12100 and 10900 | selectively targeted the pancreas and lung over the whole body, liver, or spleen | 56300 and 83100 | 127000 and 87200 | 150000 and 138000 |  |
| CCCCC/C=C\C/C=C\CCCCCCCCC(CCCCCCCC/C=C\C/C=C\CCCCC)OC(=O)CCCN(C)C [MC3, (6Z,9Z,28Z,31Z)-heptatriacont-6,9,28,31-tetraene-19-yl 4-(dimethylamino)butanoate, reference compound] | 1660000 and 2060000 |  |  | 22000000 and 20300000 | 192000 and 232000 | 300000 and 258000 |  |
| CCCCCCC(CCCCCC)CCCOC(=O)CCCCCCCN(CCCCCCCC(=O)OCCCC(CCCCCC)CCCCCC)C(=O)CCN1CCCC1 [Compound 7671, 4-hexyldecyl 8-[[8-(4-hexyldecoxy)-8-oxo-octyl]-(3-pyrrolidin-1-ylpropanoyl)amino]octanoate] | 422000 and 574000 | 780000 and 772000 | selectively targeted the pancreas and lung over the whole body, liver, or spleen | 296000 and 184000 | 141000 and 185000 | 215000 and 180000 |  |
